Experimental data published in paper PMC6036174 (Frontiers in Microbiology, 2018).
Read-outs that look alike come from different tables or passages of the source.

Assays:
[1] = system: A549 lung epithelial cells; test: A549 cell cytotoxicity (MTT); settings: 48 h incubation, MTT, called CC50 in methods; for IC50: read-out: Cytotoxicity IC50 A549 cells
[2] = system: VERO (ATCC CCL-81) normal epithelial cells; test: VERO cell cytotoxicity (resazurin); settings: 24 h incubation, called CC50 in methods; for IC50: read-out: Cytotoxicity IC50 VERO cells
[3] = system: M. tuberculosis H37Rv (ATCC 27294); test: resazurin microtiter assay, MIC against M. tuberculosis H37Rv; type: cell-based, Mycobacterium tuberculosis; settings: 7 days 37°C, 90% inhibition of growth
G. mellonella larvae = test: in vivo toxicity in Galleria mellonella larvae; settings: for % Mortality: 72 h post-injection; for In vivo G. mellonella tolerance order in μmol / In vivo G. mellonella tolerance order in μmol (Normalized against no. of phens): rank; for In vivo G. mellonella tolerance order in μmol: 1st = best tolerated, from Table 2; for In vivo G. mellonella tolerance order in μmol (Normalized against no. of phens): normalized with respect to phen content
Procedure: G. mellonella larvae in the 6th developmental stage were used to determine the in vivo cytotoxicity of the test complexes (Kellett et al., [2011]; Desbois and Coote, [2012]; McCann et al., [2012]). Thirty healthy larvae, each weighing between 0.2 and 0.4 g and with no cuticle discolouration, were used for each experiment. Fresh solutions of the test complexes were prepared immediately prior to testing under sterile conditions. Test compounds (0.05 g) were dissolved in DMSO (1 mL) and added to sterile water (9 mL) to give a stock solution/suspension (5,000 μg/mL). Test solutions/suspensions were prepared from the corresponding stock solution using Millipore water only to dilute to the desired concentration and each compound was screened across the concentration range of 5,000–100 mg/L. Test solutions/suspensions (20 μL) were administered to the larvae by injection directly into the haemocoel through the last pro-leg. The base of the pro-leg can be opened by applying gentle pressure to the sides of the larvae and this aperture will re-seal after removal of the syringe without leaving a scar. Larvae were placed in sterile Petri dishes and incubated at 30°C for 72 h. The survival of the larvae was monitored every 24 h. Death was assessed by the lack of movement in response to stimulus together with discolouration of the cuticle. Three controls were employed in all assays. The first consisted of untouched larvae maintained at the same temperature as the test larvae. The second was larvae with the pro-leg pierced with an inoculation needle but no solution injected. The third control was larvae that were inoculated with 20 μL of sterile water.

M. tuberculosis CDC1551 = test: broth tube MIC (visible pellet) against M. tuberculosis CDC1551; type: cell-based, Mycobacterium tuberculosis; settings: for MIC100 / MIC / fold increase in potency compared to INH: M. tuberculosis CDC1551; for MIC100 / MIC: 14 days 37°C, no visible pellet; for MIC: read-out: MIC100
[4] = solubility in water (descriptive); type: physicochemical
M. tuberculosis H37Rv = settings: M. tuberculosis H37Rv, cited from earlier work
[5] = 40 μg per larvae (133.33 mg/kg)
[6] = 100 μg per larvae (333.33 mg/kg)

Row | Compound | Cytotoxicity IC50 A549 cells [1] [µg/mL] | IC50 [1] [µM] | Cytotoxicity IC50 VERO cells [2] [µg/mL] | IC50 [2] [µM] | MIC90 [3] [µg/mL] | MIC90 ([3]; read-out: MIC90) [µM] | % Mortality (G. mellonella larvae; 10 μg per larvae (33.33 mg/kg)) [%] | % Mortality (G. mellonella larvae; 20 μg per larvae (66.67 mg/kg)) [%] | % Mortality (G. mellonella larvae; [5]) [%] | % Mortality (G. mellonella larvae; [6]) [%] | In vivo G. mellonella tolerance order in μmol (G. mellonella larvae) | In vivo G. mellonella tolerance order in μmol (Normalized against no. of phens) (G. mellonella larvae) | MIC100 (M. tuberculosis CDC1551) [µg/mL] | MIC (M. tuberculosis CDC1551) [µM] | solubility in water [4] | MIC (M. tuberculosis H37Rv; ref Hoffman et al., [2013]) [µM] | MIC (M. tuberculosis H37Rv; ref Oliveira et al., [2014]) [µM] | fold increase in potency compared to INH (M. tuberculosis CDC1551) [fold] | fold increase in inhibitory activity against CDC1551 relative to H37Rv (M. tuberculosis CDC1551; MIC CDC1551 vs H37Rv) [fold]
1 | O.O.O=C([O-])c1ccccc1C(=O)[O-].[Mn+2].c1cnc2c(c1)ccc1cccnc12 [compound 5, [Mn(ph)(phen)(H2O)2]] | 234.51 | 539 | 15.6 | 35.8 | 0.57 | 1.31 | 0 | 80 | 90 | 90 | 6th | 6th | < 0.19 | < 0.44 | water-insoluble | – | – | – | –
2 | O.O.[Cl-].[Cl-].[Mn+2] [MnCl2·2H2O, reference compound] | 153.4 | – | 92.1 | – | – | – | – | – | – | – | – | – | – | – | – | – | – | – | –
3 | [Cu2(oda)(phen)4](ClO4)2·2.76H2O·EtOH [compound 2] | 0.98 | – | 11.7 | 8.94 | 16.60 | 12.68 | 0 | 50 | 90 | 90 | 3rd | 2nd | 1.50 | 1.15 | water-soluble | – | – | – | –
4 | {[Mn(3,6,9-tdda)(phen)2]·3H2O·EtOH}n [compound 3] | 261.67 | 356 | 62.5 | 85 | 0.56 | 0.76 | 0 | 50 | 80 | 90 | 2nd | 2nd | 0.75 | 1.02 | water-soluble | – | – | – | –
5 | O.O.O.O.O.O=C([O-])c1ccc(C(=O)[O-])cc1.[Mn+2].c1cnc2c(c1)ccc1cccnc12.c1cnc2c(c1)ccc1cccnc12 [compound 9, [Mn(tereph)(phen)2]·5H2O] | 251.94 | 376 | 46.9 | 70 | 3.41 | 5.09 | 0 | 80 | 90 | 90 | 7th | 5th | 0.38 | 0.57 | water-insoluble | – | – | – | –
6 | O.O.O.O.O=C([O-])c1cccc(C(=O)[O-])c1.O=C([O-])c1cccc(C(=O)[O-])c1.[Mn+2].[Mn+2].c1cnc2c(c1)ccc1cccnc12.c1cnc2c(c1)ccc1cccnc12.c1cnc2c(c1)ccc1cccnc12 [compound 7, [Mn2(isoph)2(phen)3]·4H2O] | 255.87 | 244 | 125 | 119 | 1.56 | 1.48 | 0 | 60 | 80 | 90 | 4th | 3rd | – | – | water-insoluble | – | – | – | –
7 | O.O.O.O.O.O=C([O-])c1ccccc1C(=O)[O-].[Mn+2].c1cnc2c(c1)ccc1cccnc12.c1cnc2c(c1)ccc1cccnc12 [compound 6, [Mn(ph)(phen)2(H2O)]·4H2O] | 259.34 | 387 | 11.7 | 17.5 | 1.42 | 2.12 | 0 | 80 | 90 | 90 | 7th | 5th | 0.38 | 0.57 | water-insoluble | – | – | – | –
8 | O.O=P([O-])(O)OP(=O)([O-])O.[Cu+2].c1cnc2c(c1)ccc1cccnc12 [[Cu(phen)(H2O)(H2P2O7)]] | – | – | – | – | – | – | – | – | – | – | – | – | – | – | – | 71.53 | – | – | –
9 | O=P([O-])(O)OP(=O)([O-])O.[Co+2].c1cnc2c(c1)ccc1cccnc12.c1cnc2c(c1)ccc1cccnc12 [[Co(phen)2(H2P2O7)]] | – | – | – | – | – | – | – | – | – | – | – | – | – | – | – | 2.05 | – | – | –
10 | C/C(=N\NC(=S)Nc1ccccc1)c1ccccn1.C/C(=N\NC(=S)Nc1ccccc1)c1ccccn1.[Mn+2] [[Mn(atc-Ph)2]] | – | – | – | – | – | – | – | – | – | – | – | – | – | – | – | – | 1.31 | – | –
11 | CNC(=S)N/N=C(\C)c1ccccn1.CNC(=S)N/N=C(\C)c1ccccn1.[Mn+2] [[Mn(atc-Me)2]] | – | – | – | – | – | – | – | – | – | – | – | – | – | – | – | – | 50.69 | – | –
12 | [Mn2(oda)(phen)4(H2O)2][Mn2(oda)(phen)4(oda)2]·4H2O [compound 1] | > 512 | > 208 | 375 | 153 | 1.15 | 0.47 | 0 | 40 | 90 | 90 | 1st | 1st | – | – | water-soluble | – | – | ~3 | 3
13 | [Cl-].[Cl-].[Mn+2] [MnCl2·2H2O, reference compound] | – | 947 | – | 569 | – | – | – | – | – | – | – | – | – | – | – | – | – | – | –
14 | {[Cu(3,6,9-tdda)(phen)2]·3H2O·EtOH}n [compound 4] | 1.06 | 1.42 | 5.85 | 7.86 | 10.03 | 13.48 | 0 | 80 | 90 | 90 | 8th | 6th | 0.75 | 1.01 | water-soluble | – | – | – | –
15 | O.O.O.O.O.O.O.O.O.O.O.O.O.O.O.O.O=C([O-])c1cccc(C(=O)[O-])c1.O=C([O-])c1cccc(C(=O)[O-])c1.[Mn+2].[Mn+2].c1cnc2c(c1)ccc1cccnc12.c1cnc2c(c1)ccc1cccnc12.c1cnc2c(c1)ccc1cccnc12.c1cnc2c(c1)ccc1cccnc12.c1cnc2c(c1)ccc1cccnc12 [compound 8, {[Mn(phen)2(H2O)2]}2(isoph)2(phen)·12H2O] | 251.76 | 155 | 46.9 | 28.8 | 3.01 | 1.85 | 0 | 80 | 90 | 90 | 9th | 5th | – | – | water-insoluble | – | – | ~3 | –
